Data reported in patent US10006918B2, “Fluorogenic hydrazine-substituted compounds” (LIFE TECHNOLOGIES CORPORATION, priority 2008, dated 2018).

Assay: Aldehyde reactivity of compounds: fluorogenic reaction with acetaldehyde in phosphate buffer, excitation/emission spectra
Assay type: physicochemical
Method: Spectra were taken at pH 6 in a 50 mM phosphate buffer solution.
Spectra were taken at pH 6 in 50 mM phosphate buffer solution.
A sample of Compound 2 (5 mg, 0.0126 mmol) is dissolved in 10 ml of pH 6.5, 50 mmol phosphate buffer solution. To this non-fluorescent solution, is added 25 ul, 1 mol solution of acetaldehyde in water at room temperature. […] The reaction is complete in 10 minutes to give a stable […] analog. Its absorption max is at 548 nm and emission max is at 580 nm (see FIGS. 3A and B).

[1] = after reaction with acetaldehyde, pH 6.5 phosphate buffer
[2] = aldehyde-reacted, pH 6, 50 mM phosphate buffer, FIG. 3B

absorption max of acetaldehyde reaction product [1]: 548 nm
emission max of acetaldehyde reaction product [1]: 580 nm
emission spectra maximum, aldehyde-reacted compound [2]: 581 nm
excitation maximum, aldehyde-reacted compound [2]: 548 nm
excitation maximum, un-reacted compound (un-reacted dye, FIG. 3A): 519 nm
Compound: NN=c1ccc2c(-c3ccccc3S(=O)(=O)O)c3ccc(NN)cc3oc-2c1 [Compound 2, 2-(6-hydrazinyl-3-hydrazono-3H-xanthen-9-yl)benzenesulfonate]
fluorescence of solution after addition of acetaldehyde (25 ul 1 mol acetaldehyde in water, room temperature, pH 6.5 phosphate buffer, within a few minutes): highly fluorescent
change of fluorescence upon reaction with an aldehyde (emission spectra before and after contact with acetaldehyde) (acetaldehyde, pH 6, 50 mM phosphate buffer, FIG. 1): significant fluorescent increase
time to complete reaction with acetaldehyde (room temperature, pH 6.5, 50 mmol phosphate buffer): 10 min
